One assay deals with AMPK alpha1/beta2/gamma1 (Homo sapiens, UniProt O43741+P54619+Q13131). The experiment in a line: Binding affinity to human recombinant N-terminal AVI-tagged phosphorylated AMPK alpha1beta2gamma1 expressed in Escherichia coli BL21 cells after 1 to 10 mins by biolayer interferometry.
Assay [1] has as its target AMP-activated protein kinase (AMPK) alpha-1/beta-1/gamma-1 (Homo sapiens, UniProt P54619+Q13131+Q9Y478). The experiment in a line: Binding affinity to human recombinant N-terminal AVI-tagged phosphorylated AMPK alpha1beta1gamma1 expressed in Escherichia coli BL21 cells after 1 to 10 mins by biolayer interferometry. (In general: In BLI a coated tip is dipped into the sample, and binding shifts an interference pattern.)

A further assay has as its system HEK293. The experiment in a line: Selectivity ratio of FLAG-tagged wild type AMPK beta1 (unknown origin) expressed in HEK293 cells over FLAG-tagged wild type AMPK beta2 (unknown origin) expressed in HEK293 cells. In kind it is cell-based. To be noted: Homo sapiens.

The term Kd denotes a measure of binding affinity in units of concentration.

Sequence of AMP-activated protein kinase (AMPK) alpha-1/beta-1/gamma-1 (P54619 whole entry): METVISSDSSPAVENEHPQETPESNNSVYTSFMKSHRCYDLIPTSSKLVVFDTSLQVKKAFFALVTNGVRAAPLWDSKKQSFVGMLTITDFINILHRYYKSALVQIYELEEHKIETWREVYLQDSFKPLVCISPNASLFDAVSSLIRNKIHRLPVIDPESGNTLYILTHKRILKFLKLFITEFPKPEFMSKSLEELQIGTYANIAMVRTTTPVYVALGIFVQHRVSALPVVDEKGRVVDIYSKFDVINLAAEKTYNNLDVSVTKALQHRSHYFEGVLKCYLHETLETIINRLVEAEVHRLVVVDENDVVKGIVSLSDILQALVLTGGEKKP
Sequence of AMP-activated protein kinase (AMPK) alpha-1/beta-1/gamma-1 (Q9Y478 whole entry): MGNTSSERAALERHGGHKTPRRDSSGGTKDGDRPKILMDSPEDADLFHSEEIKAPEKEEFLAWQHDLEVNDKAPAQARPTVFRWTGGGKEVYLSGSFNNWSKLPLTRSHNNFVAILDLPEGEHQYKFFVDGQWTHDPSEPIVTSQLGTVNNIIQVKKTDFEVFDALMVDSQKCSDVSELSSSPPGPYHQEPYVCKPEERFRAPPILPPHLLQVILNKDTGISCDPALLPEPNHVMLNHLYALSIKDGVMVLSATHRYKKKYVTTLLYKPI
Sequence of AMP-activated protein kinase (AMPK) alpha-1/beta-1/gamma-1 (Q13131 whole entry): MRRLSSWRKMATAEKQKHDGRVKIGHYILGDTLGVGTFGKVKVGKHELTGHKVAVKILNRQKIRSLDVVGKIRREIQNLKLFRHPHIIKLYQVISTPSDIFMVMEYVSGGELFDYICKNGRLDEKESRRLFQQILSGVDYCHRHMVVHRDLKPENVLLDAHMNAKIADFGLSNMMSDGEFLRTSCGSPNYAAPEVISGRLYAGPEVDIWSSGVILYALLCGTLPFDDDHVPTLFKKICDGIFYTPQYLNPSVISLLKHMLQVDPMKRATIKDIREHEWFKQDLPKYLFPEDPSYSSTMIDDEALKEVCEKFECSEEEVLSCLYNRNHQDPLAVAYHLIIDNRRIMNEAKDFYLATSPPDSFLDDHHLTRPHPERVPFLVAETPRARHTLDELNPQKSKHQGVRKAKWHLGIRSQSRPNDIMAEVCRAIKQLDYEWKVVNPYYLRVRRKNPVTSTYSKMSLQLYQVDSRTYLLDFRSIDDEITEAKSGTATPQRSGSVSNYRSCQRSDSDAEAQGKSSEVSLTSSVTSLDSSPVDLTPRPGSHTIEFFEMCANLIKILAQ
Sequence of AMPK alpha1/beta2/gamma1 (O43741 whole entry): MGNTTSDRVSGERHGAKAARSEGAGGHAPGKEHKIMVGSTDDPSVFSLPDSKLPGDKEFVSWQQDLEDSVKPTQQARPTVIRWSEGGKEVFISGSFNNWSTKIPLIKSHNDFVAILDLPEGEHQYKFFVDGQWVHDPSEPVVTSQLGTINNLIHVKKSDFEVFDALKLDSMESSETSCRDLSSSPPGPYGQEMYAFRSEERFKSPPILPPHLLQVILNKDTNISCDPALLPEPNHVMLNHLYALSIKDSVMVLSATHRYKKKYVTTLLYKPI
Sequence of AMPK alpha1/beta2/gamma1 (P54619 whole entry): as the sequence (P54619 whole entry) above
Sequence of AMPK alpha1/beta2/gamma1 (Q13131 whole entry): as the sequence (Q13131 whole entry) above

For the compound `N#Cc1c(O)c2c(-c3ccc(-c4ccccc4O)cc3)csc2[nH]c1=O`, the results for the Kd (on AMPK alpha1/beta2/gamma1; in assay [1]) were 14.5 µM and 0.51 µM, respectively. In the assay on HEK293, the Selectivity ratio worked out at 30.

The values above are taken from ChEMBL document CHEMBL3804759, “Pharmacological Targeting of AMP-Activated Protein Kinase and Opportunities for Computer-Aided Drug Design” (J Med Chem, 2016).
